From patent publication US20210052528A1, “THE USE OF SGC ACTIVATORS AND SGC STIMULATORS FOR THE TREATMENT OF COGNITIVE IMPAIRMENT” (Bayer Aktiengesellschaft, priority 2018, published 2021)
Read-outs that look alike come from different tables or passages of the source.

How the values were obtained:
male Wistar rats = assay: Object Location Task (OLT), learning and memory improvement in vivo; design: species or system rat; conditions: for memory performance, discrimination index (d2), compared with chance level (d2=0): one-sample t-test; for memory performance, discrimination index (d2), compared to the vehicle condition: one-way ANOVA, LSD t-tests; for dose with the most prominent effect in the memory test: object location task, rats, dose does not decrease blood pressure
Source text: Therefore, the well accepted Object Location Task (OLT) in rats was used. This task allows the assessment of acquisition, consolidation and retrieval of (spatial) information into memory, and is derived from the Object Recognition Task (ORT) (e.g. Ennaceur and Delacour, 1988; Prickaerts et al., 1997).
All experimental procedures were approved by the local ethical committee of Maastricht University for animal experiments and met governmental guidelines. […] The animals were housed individually in a standard IVC cage system on sawdust bedding in an air-conditioned room (about 20° C.). They were kept under a reversed 12/12 h light/dark cycle (lights on from 19.00 to 07.00) and had free access to food and water. Rats were housed and tested in the same room. A radio, which was playing softly, provided background noise in the room. All testing was done between 09.00 and 17.00.
The test compounds were freshly prepared on every experimental day and were dissolved in 0.5% Tylose solution (98% of the end volume) with 2% Tween80.
The order of the treatments was balanced to prevent the data from being distorted by potential object- and side-preferences of the animals.
The Object Location Task (OLT) was derived from the Object Recognition Test (ORT) (Ennaceur and Delacour, 1988). The OLT is a one-trial learning task which allows the assessment of spatial memory, and was performed as described elsewhere (Bruno et al., 2011, Vanmierlo et al., 2011). In the first (learning) trial a rat is put into an arena in which two identical objects are placed. After a certain delay, the rat is given a second trial. In this second trial the rat is again placed in the same arena but now one of the objects has been moved to a different position within the area. In other words, a new spatial arrangement is being used.
The apparatus consisted of a circular arena, 83 cm in diameter. The back-half of the 40 cm high arena wall was made of gray polyvinyl chloride, the front-half consisted of transparent polyvinyl chloride. The light intensity was equal in the different parts of the apparatus, as fluorescent red tubes provided a constant illumination of about 20 lux on the floor of the apparatus. In the first (learning) trial (T1), two objects were placed in a symmetrical position on a distance of about 10 cm from the wall of the left- and the right-side of the arena. In the second (test) trial (T2), one object is moved to a new location which is about 20 cm higher or lower than the original positon. Four different sets of objects were used. The different objects were: 1) a cone consisting of a gray polyvinyl chloride base (maximal diameter 18 cm) with a collar on top made of aluminum (total height 16 cm), 2) a standard 1 L brown glass bottle (diameter 10 cm, height 22 cm) filled with water, 3) a massive metal cube (10.0×5.0×7.5 cm) with two holes (diameter 1.9 cm), and 4) a solid aluminum cube with a tapering top (13.0×8.0×8.0 cm). Rats were unable to displace the objects.
A testing session consisted of two trials. The duration of each trial was 3 min. During the first trial (T1) the apparatus contained two identical objects. Rats were placed in the apparatus facing the wall at the middle of the front (transparent) segment. After the first exploration period the rat was put back in its home cage. Subsequently, after a 24 h delay interval, the rat was put in the apparatus for the second trial (T2). The total time an animal spent exploring each object during T1 and T2 was recorded manually with a personal computer.
Exploration was defined as follows: directing the nose to the object at a distance of no more than 2 cm and/or touching the object with the nose. Sitting on the object was not considered as exploratory behavior. A minimal amount of object interaction is required in order to achieve reliable object discrimination, therefore rats that explore less than 7 s in T1 and/or 9 s in T2 should be excluded from the analyses (Akkerman et al., 2012).

normotensive Wistar rats = assay: Measurement of arterial blood pressure in vivo by radiotelemetry in conscious rats; design: species or system rat; conditions: over 24 hours; for effect on mean arterial blood pressure (MAP) over the dose range: all tested doses compared to vehicle
Method: Adult normotensive Wistar rats (Wistar HSD CPB:WU) with a body weight of 250 to 350 g were used for these experimental studies. All animals were housed in individual cages at 22-24° C. ambient temperature and maintained on a 12-hour light/dark cycle with free access to standard laboratory rat chow and water ad libitum. All animal experiments were done in accordance to the current national legislation (German protection of animals act and the EU directives on the protection of animals used for scientific purposes). All performed studies were approved by the regional regulatory authority (LANUV NRW in Germany) and by the institutional animal care and use committee of Bayer AG.
Blood pressure is monitored in freely moving conscious rats by radiotelemetry by a telemetric system (DSI Data Science International, MN, USA). A transmitters (TAI1PA-C40) is implanted in the abdomen of the rat during deep anaesthesia. After recovery of the rats, telemetric signals are registered by a receiver plate (RA1010) and compiled by a computer-based acquisition software (Dataquest A.R.T 4.1 for Windows).
After shaving the abdominal wall of the rat, a midline abdominal incision was made, and the fluid-filled sensor catheter was inserted upstream into the exposed descending aorta between the iliac bifurcation and the renal arteries. According to the DSI guidelines the tip of the telemetric catheter was located just caudal to the renal arteries and secured by tissue adhesive. The transmitter body was affixed to the inner peritoneal wall before closure of abdomen. A two-layer closure of the abdominal incision was used, with individual suturing of the peritoneum and the muscle wall followed by closure of the outer skin. Surgery was performed under aseptic conditions. For postsurgical protection against infections and pain a single dosage of an antibiotic (Oxytetracyclin® 10%, 60 mg/kg s.c., 0.06 ml/100 g body weight, Beta-Pharma GmbH & Co, Germany) and analgesic were injected (Rimadyl®, 4 mg/kg s.c., Pfizer, Germany).
After activation of the implanted transmitters, A.R.T., an on-line data acquisition system, samples data and converts telemetric pressure signals to mm Hg. A barometric pressure reference allows for relation of absolute pressure (relative to vacuum) to ambient atmospheric pressure. Data acquisition software was predefined to sample hemodynamic data for 10-s intervals every 5 minutes. Data collection to file was started 2 hours (T=−2 hours) before drug administration (T=0 hours) and finished after completion of 24 hours (T=24 hours).
Data are expressed as % of baseline values. The baseline value for each animal was calculated and represents the mean blood pressure of the 2 hour period (T=−2 hours to T=0 hours) before the administration of drug or vehicle. For further analysis data were grouped to provide mean for every 0.5 hours. The means of all values obtained for each individual during the period indicated were averaged for each day. Groups were compared by one-way ANOVA with Dunnet's test.
All animals were treated with single oral doses of vehicle or the compound in different dosages (e.g. 0.3, 1.0, 3.0, or 10.0 mg/kg). Application volume was 2 ml/kg body weight. The experiment started at 7:00 a.m. (T=−2 hours), vehicle or drug administration took place at 9.00 a.m. (=0 hours) and registration period was 24 hours. For analysis, data were grouped to provide half-hourly averages.

healthy mice = conditions: cited from earlier work
[1] = 0.1 mg/kg p.o. 30 min before T1, 24 h interval
[2] = 0.3 mg/kg p.o. 30 min before T1, 24 h interval
[3] = 1.0 mg/kg p.o. 30 min before T1, 24 h interval

SMILES | memory performance, discrimination index (d2), compared with chance level (d2=0) (male Wistar rats; [1]) | memory performance, discrimination index (d2), compared with chance level (d2=0) (male Wistar rats; [2]) | memory performance, discrimination index (d2), compared to the vehicle condition (male Wistar rats; [2]) | memory performance, discrimination index (d2), compared with chance level (d2=0) (male Wistar rats; [3]) | memory performance, discrimination index (d2), compared to the vehicle condition (male Wistar rats; [3]) | dose with the most prominent effect in the memory test (male Wistar rats) [mg/kg] | mean arterial blood pressure (MAP) compared to vehicle (normotensive Wistar rats; 0.3 mg/kg single oral dose) | mean arterial blood pressure (MAP) compared to vehicle (normotensive Wistar rats; 1.0 mg/kg single oral dose) | mean arterial blood pressure (MAP) compared to vehicle (normotensive Wistar rats; 3.0 mg/kg single oral dose) | effect on mean arterial blood pressure (MAP) over the dose range (normotensive Wistar rats) | memory performance, discrimination index (d2), compared with chance level (d2=0) (male Wistar rats; 0.03 mg/kg p.o. 30 min before T1, 24 h interval) | memory performance, discrimination index (d2), compared to the vehicle condition (male Wistar rats; [1]) | mean arterial blood pressure (MAP) compared to vehicle (normotensive Wistar rats; 10.0 mg/kg single oral dose) | spatial memory (healthy mice; higher doses 0.1-0.3 mg/kg) | spatial memory (healthy mice; lower dose 0.01 mg/kg) | spatial memory (healthy mice; single dose of 0.03 mg/kg)
COC(=O)Nc1c(N)nc(-c2nn(Cc3ccccc3F)c3ncc(F)cc23)nc1N [compound of formula (5), methyl{4,6-diamino-2-[5-fluoro-1-(2-fluorobenzyl)-1H-pyrazolo[3,4-b]pyridine-3-yl]pyrimidin-5-yl}carbamate] | improved memory performance | improved memory performance | significant higher memory performance | improved memory performance | significant higher memory performance | 0.3 | no significant decrease | significantly lowered | significantly lowered | dose-dependent effect | – | – | – | – | – | –
O=C(O)CCCCN(CCc1cc(F)ccc1OCc1ccc(-c2ccc(C(F)(F)F)cc2)cc1)Cc1ccc(C(=O)O)cc1 [compound of formula (2), 4-({(4-carboxybutyl)[2-(5-fluoro-2-{[4′-(trifluoromethyl)[1,1′-biphenyl]-4-yl]methoxy}phenyl)ethyl]amino}methyl)benzoic acid] | improved memory performance | improved memory performance | significant higher memory performance | improved memory performance | significant higher memory performance | – | – | – | – | – | – | – | – | – | – | –
C[C@H]([C@H](C(=O)Nc1cc(C(CC(=O)O)C2CC2)ccc1Cl)c1ccc(Cl)cc1)C(F)(F)F (stereo partly drawn) [compound of formula (1), 3-(4-chloro-3-{[(2S,3R)-2-(4-chlorophenyl)-4,4,4-trifluoro-3-methylbutanoyl]amino}phenyl)-3-cyclopropylpropanoic acid] | improved memory performance | improved memory performance | significant higher memory performance | improved memory performance | significant higher memory performance | 0.3 | – | no significant decrease | no significant decrease | dose-dependent effect | improved memory performance | significant higher memory performance | significantly lowered | – | – | –
COC(=O)N(C)c1c(N)nc(-c2nn(Cc3ccccc3F)c3ncccc23)nc1N [Riociguat] | – | – | – | – | – | – | – | – | – | – | – | – | – | no significant effect | no significant effect | able to enhance spatial memory
